Where “and” joins values, the source holds several entries; their conditions need not be identical. Identical values can stand only once.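 Growth conditions: 96-well plates. Treatment: test compound, 48 hours, 5 concentrations. Analysis: linear interpolation between bracketing concentrations; unreached endpoints set to highest concentration. At the GI50, growth is halved. TGI: total growth inhibition.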
Columns and labels:
Experiment in all cases: NCI-60 cell line screen, 48 h
K-562 leukemia = tested on: K-562 leukemia
NCI-H23 lung = tested on: NCI-H23 lung
IGROV1 ovarian = tested on: IGROV1 ovarian
RXF 393 renal = tested on: RXF 393 renal
SNB-75 CNS = tested on: SNB-75 CNS
HCT-15 colon = tested on: HCT-15 colon
MOLT-4 leukemia = tested on: MOLT-4 leukemia
UACC-62 melanoma = tested on: UACC-62 melanoma
SK-MEL-28 melanoma = tested on: SK-MEL-28 melanoma
OVCAR-3 ovarian = tested on: OVCAR-3 ovarian

Structure (SMILES)	TGI (K-562 leukemia)	TGI (NCI-H23 lung)	TGI (IGROV1 ovarian)	TGI (RXF 393 renal)	TGI (SNB-75 CNS)	TGI (HCT-15 colon)	TGI (MOLT-4 leukemia)	TGI (UACC-62 melanoma)	TGI (SK-MEL-28 melanoma)	TGI (OVCAR-3 ovarian)	GI50 (K-562 leukemia)	GI50 (NCI-H23 lung)	GI50 (IGROV1 ovarian)	GI50 (RXF 393 renal)	GI50 (SNB-75 CNS)	GI50 (HCT-15 colon)	GI50 (MOLT-4 leukemia)	GI50 (UACC-62 melanoma)	GI50 (SK-MEL-28 melanoma)	GI50 (OVCAR-3 ovarian)
CC(C)(C)C1=CC(=N/N=c2\scc(-c3ccccc3)n2-c2ccccc2)C=C(C(C)(C)C)C1=O	> 100 µM	> 100 µM	> 100 µM	> 100 µM	> 100 µM	> 100 µM	> 100 µM	> 100 µM	> 100 µM	> 100 µM	–	–	–	–	–	–	–	–	–	–
O=C1c2ccccc2-c2c3c(cc4ccnc1c24)OCO3	> 100 µM and 15 µM	25.9 µM and 17.4 µM	> 100 µM and 34.3 µM	18.4 µM and 33 µM	26.3 µM and 21.1 µM	68.3 µM and > 100 µM	15.6 µM and > 100 µM	69.2 µM and 8.07 µM	30.7 µM and > 100 µM	60.4 µM and 48.9 µM	–	–	–	–	–	–	–	–	–	–
NC(=S)N1N=C2CCCCCC[C@@H]2[C@H]1c1ccccc1	> 100 µM	> 100 µM	> 100 µM	> 100 µM	> 100 µM	> 100 µM	> 100 µM	> 100 µM	> 100 µM	> 100 µM	–	–	–	–	–	–	–	–	–	–
C=C(C)[C@@H]1CC[C@]2(CO)CC[C@]3(C)[C@H](CC[C@@H]4[C@@]5(C)CCCNC(C)(C)[C@@H]5CC[C@]43C)[C@@H]12	3.79 µM	3.39 µM	3.26 µM	3.18 µM	2.91 µM	2.77 µM	4.5 µM	3.25 µM	3.16 µM	3.13 µM	1.08 µM	1.71 µM	1.66 µM	1.68 µM	1.54 µM	1.39 µM	1.79 µM	1.82 µM	1.62 µM	1.66 µM
CC1=C(C#N)C23C(=O)N(c4ccccc4)C(=O)C2=C(O)C=CC3(O)N1Cc1ccc(Cl)cc1Cl (configuration not stated)	9.26 µM	15.9 µM	7.19 µM	3.87 µM	16.7 µM	19 µM	7.55 µM	4.4 µM	3.4 µM	4.96 µM	3.76 µM	3.33 µM	2.86 µM	1.87 µM	4.09 µM	5.88 µM	2.92 µM	1.88 µM	1.53 µM	2.89 µM
COc1nc(N)nc2c1ncn2C1CC(O)C(CO)O1 (configuration not stated)	> 100 µM	> 100 µM	> 100 µM	> 100 µM	> 100 µM	> 100 µM	> 100 µM	> 100 µM	> 100 µM	> 100 µM	–	–	–	–	–	–	–	–	–	–
Cc1cc2c(F)c(Oc3ncnc(Nc4ccc(N5C[C@@H](C)N[C@@H](C)C5)cc4)c3C#N)cc(F)c2[nH]1	3.83 µM	11.3 µM	6.91 µM	2.44 µM	3.18 µM	4.24 µM	5.44 µM	4.89 µM	3.7 µM	3.46 µM	1.62 µM	2.44 µM	2.48 µM	0.641 µM	1.1 µM	1.73 µM	1.67 µM	2.37 µM	1.96 µM	1.75 µM
COc1cc(-c2nn(-c3cccc(NC(=O)Nc4ccc(Cl)c(C(F)(F)F)c4)c3)cc2-c2ccncc2)ccc1Cl	> 32.5 µM	8.02 µM	4.22 µM	6.29 µM	10.3 µM	7.05 µM	7.96 µM	2.09 µM	5.01 µM	2.44 µM	1.21 µM	1.13 µM	1.2 µM	1.18 µM	1.28 µM	1.23 µM	1.02 µM	0.738 µM	1.2 µM	0.889 µM
O=C1C2CCN(CC2)C1CN1CCOCC1 (configuration not stated)	20.3 µM	23.9 µM	38.4 µM	5.33 µM	36.2 µM	4.94 µM	13.8 µM	30.9 µM	10.6 µM	4.18 µM	–	–	–	–	–	–	–	–	–	–
NC(=O)c1cc(N2CC2)c([N+](=O)[O-])cc1[N+](=O)[O-]	> 200 µM	> 200 µM	> 200 µM	> 200 µM	> 200 µM	> 200 µM	> 63.2 µM	> 200 µM	> 200 µM	> 200 µM	> 200 µM	> 200 µM	> 200 µM	> 200 µM	> 200 µM	–	–	> 200 µM	–	> 200 µM
O=C(O)Cc1cccc2c(=O)cc(-c3ccccc3)oc12	250 µM and > 844 µM	> 1000 µM	> 1000 µM	250 µM and > 1000 µM	249 µM and > 676 µM	250 µM and > 1000 µM	> 824 µM	> 1000 µM	> 1000 µM	250 µM and > 1000 µM	148 µM	581 µM	518 µM	> 862 µM	345 µM	343 µM	288 µM	475 µM	533 µM	568 µM
CCC1=C(c2ccc(OC)cc2)C(C)(C)Oc2c1ccc(O)c2CN1CCCC1	3.1 µM	21.6 µM	23.9 µM	3.87 µM	87.4 µM	4.44 µM	6.53 µM	3.86 µM	3.32 µM	36.2 µM	0.759 µM	3.02 µM	3.84 µM	1.24 µM	1.66 µM	1.91 µM	2.18 µM	1.81 µM	1.7 µM	4.13 µM
O=C1Nc2c(Cl)cc(Cl)cc2/C1=N/N=C/c1ccco1	> 100 µM	75.9 µM	> 100 µM	> 100 µM	42.7 µM	> 100 µM	> 100 µM	53.6 µM	> 100 µM	95.1 µM	–	–	–	–	–	–	–	–	–	–
NCCCCC(NC(=O)C(N)CCCN=C(N)N)C(=O)NC(CCCCN)C(=O)NC(CCCN=C(N)N)C(=O)NC(CCCN=C(N)N)C(=O)NC(CCC(N)=O)C(=O)NC(CCCN=C(N)N)C(=O)NC(CCCN=C(N)N)C(=O)NC(CCCN=C(N)N)C(=O)NCC(=O)NCC(=O)O (configuration not stated)	> 50 µM	> 50 µM	> 50 µM	> 50 µM	> 50 µM	> 50 µM	> 50 µM	> 50 µM	> 50 µM	> 50 µM	> 50 µM	> 50 µM	> 50 µM	> 50 µM	> 50 µM	> 50 µM	> 50 µM	> 50 µM	> 50 µM	> 50 µM
CC1(C)Oc2ccc3ccc(=O)oc3c2C(O)C1O (configuration not stated)	> 100 µM	> 100 µM	> 100 µM	> 100 µM	> 100 µM	> 100 µM	53 µM	> 100 µM	> 100 µM	> 100 µM	–	–	–	–	–	–	–	–	–	–

Source: PubChem BioAssay (NCI)
